Test results: US20120053119A1, “THERAPEUTIC METHOD FOR INCREASING PANCREATIC BETA CELL MASS” (priority 2009, published 2012)

Assays:
Assay type in all cases: cell-based
[1] = tested on: Wnt target genes; assay: Wnt signaling pathway-focused microarray (SuperArray) of INS-1 cells treated with SDF-1; details: 4 hrs
Description: FIG. 8. Wnt signaling focused array analysis. INS-1 cells were stimulated by SDF-1 (10 nM) for 4 hr. Total RNA was isolated and biotin-labeled complementary RNAs were generated. The Wnt signaling pathway-focused microarray filters (SuperArray Bioscience) were hybridzed with these biotin-labeled targets at 60 degree overnight. The filters were washed and subsequently incubated with alkaline phosphatase-conjugated streptavidin and CDP-substrate. The chemiluminescent images were captured. For quantification, the spot intensity was measured and normalized to the value of the housekeeping gene GADPH. Shown is a representative image of the focused array.
Gene expression profiling on focused microarrays INS-1 cells were untreated or treated with 10 nM SDF-1 for 4 hrs. Total RNA was isolated and Biotin-labeled complimentary RNAs were generated using the TrueLabeling-AMP Linear RNA Amplification Kit (SuperArray Bioscience Corp.) The Wnt-signaling pathway-focused microarray filters (118 probes) (SuperArray Bioscience Corp.) were hybridized with these biotin-labeled targets (5 microg/array at 60 C overnight. The filters were washed and subsequently incubated with alkaline phosphatase-conjugated streptavidin and CDPStar substrate. The Chemiluminescent images were captured using Kodak Digital Station 440 (Perkin Elmer). For quantification, the spot intensity was measured and normalized to the value of the housekeeping gene GAPDH. Fold-changes in gene expression levels were determined by comparisons of hybridization densities of SDF-1 treated versus untreated INS-1 cells. Real time RT-PCR was carried out by using the SYBR® Green QPCR kit (Stratagene). Briefly, INS-1 cells were treated with 10 nM SDF-1 or PBS vehicle control for 4 h. Total RNA was reverse-transcribed to cDNA using Super-Script II reverse transcriptase (Invitrogen). Real-time PCR was performed to amplify cyclin D1 and beta-catenin.
The expression of transcripts in INS-1 cells in response to SDF-1 (10 nM, 4 hrs) was determined on focused arrays of genes expressed in the Wnt signaling pathway. […] This finding is consistent with the down-regulation of genes expressing components of the beta-catenin destruction box involved in the degradation of beta-catenin that occurs in the absence of active Wnt signaling; for example, axin, glycogen synthase kinase-3 (Gsk3) and casein kinase 1 (Csnk1). These findings are consistent with the mechanism of Wnt/Fz-induced signaling involving Galphai/o activation of disheveled (Dv1) and the inhibition of the destruction box enzymes GSK3 and Csnk1 that destabilize and degrade betacatenin.

[2] = tested on: alpha-TC-1 cells; assay: BrdU incorporation cell proliferation assay in alpha-TC-1 cells; details: serum starved alpha-TC-1 cells, SDF-1 10 nM, 20 hrs
Description: FIG. 16. BrdU incorporation cell proliferation assay. Serum starved alpha-TC-1 cells were treated with either PBS (Control) or SDF-1 (10 nM) for 20 hrs, and their proliferation rate was examined by a BrdU incorporation assay. Data represent means±S.D. of three experiments. Statistical significance is depicted as * (p<0.05) when compared with control values (left bar).

[3] = tested on: prohormone convertase PC1/3; assay: PC1/3 expression by QPCR in alphaTC-1 cells; details: by one hour after addition of SDF-1, QPCR
Source text: FIG. 19. […] Determined by QPCR. High priority experiments planned are to examine PC1/3 protein expression in isolated mouse islets using Western immunoblot, immunocytochemistry, and bioassays for active PC 1/3.

[4] = tested on: INS-1 cells; assay: ATP-lite cell viability assay, glucose toxicity; details: 25 mM glucose, SDF-1 added day 0, 2, 4, read day 6
Description: FIG. 34. […] For bars 3-8, SDF-1 was added at the indicated concentrations to high glucose concentration well plates at day 0, 2, 4. Cell viability was measured at day 6. N=4.
SDF-1 was added at various concentrations (0.1 nM, 0.25 nM, […], 1 nM, 2.5 nM, and 5 nM) to high glucose concentration well plates at day 0, 2, 4. Cell viability was measured at day 6, using the ATP-lite cell viability assay (PerkinElmer, Boston, Mass.).

[5] = tested on: INS-1 cells; assay: ATP-lite cell viability assay, serum deprivation, SDF-1 with AMD3100; details: serum-free medium, SDF-1 2 nM, day 6
Description: ATP lite cell viability assay: INS-1 cells were plated in 96 well plates. SDF-1 (2 nM) and AMD3100 were added at day 0, 2, 4 and cell viability was measured at day 6 using relative light units (RLU) as compared to control. N=6.
INS-1 cells were plated in 96 well plates in control medium (no serum) or a medium containing 2% serum. SDF-1 (2 nM) and SDF-1 (2 nM) along with various concentrations of AMD3100 (2 uM, 0.4 uM, 80 nM, 16 nM) were added to different cell groups incubated in serum-free medium at days 0, 2, 4, and cell viability was measured at day 6 using relative light units (RLU) as compared to control.

**Q.** “SDF-1: small, secreted 70 amino acid peptide chemokine, SEQ ID NO: 1, ligand of CXCR4” was tested. Which “mRNA fold change by SDF-1” value ([1]; gene Axin1, SDF-1 10 nM) did it give?
**A.** −2.58 fold

**Q.** And the “mRNA fold change by SDF-1” value ([1]; gene Ccnd1 (Cyclin D1), SDF-1 10 nM)?
**A.** 1.48 fold

**Q.** And the “mRNA fold change by SDF-1” value ([1]; gene Ccnd2 (Cyclin D2), SDF-1 10 nM)?
**A.** −2.29 fold

**Q.** What about the “mRNA fold change by SDF-1” value ([1]; gene Csnk2a1 (Casein kinase II, Alpha1), SDF-1 10 nM) of the same substance?
**A.** −1.42 fold

**Q.** What about the “mRNA fold change by SDF-1” value ([1]; gene Csnk2b (Casein kinase 2, beta subunit), SDF-1 10 nM) of the same substance?
**A.** −3.03 fold

**Q.** What about the “mRNA fold change by SDF-1” value ([1]; gene Ctbp1 (C-terminal binding protein 1), SDF-1 10 nM) of the same substance?
**A.** −2.32 fold

**Q.** What about the “mRNA fold change by SDF-1” value ([1]; gene Ctnnb1 (Catenin (cadherin associated protein), beta 1), SDF-1 10 nM) of the same substance?
**A.** 1.99 fold

**Q.** And the “mRNA fold change by SDF-1” value ([1]; gene Cxxc4 (CXXC finger 4), SDF-1 10 nM)?
**A.** −1.43 fold

**Q.** What about the “mRNA fold change by SDF-1” value ([1]; gene Dvl1 (Dishevelled, dsh homolog 1), SDF-1 10 nM) of the same substance?
**A.** −1.92 fold

**Q.** What about the “mRNA fold change by SDF-1” value ([1]; gene Fosl1 (Fos-like antigen 1), SDF-1 10 nM) of the same substance?
**A.** 1.72 fold

**Q.** What about the “mRNA fold change by SDF-1” value ([1]; gene Foxn1 (Forkhead box N1), SDF-1 10 nM) of the same substance?
**A.** 1.66 fold

**Q.** And the “mRNA fold change by SDF-1” value ([1]; gene Fshb (Follicle stimulating hormone beta), SDF-1 10 nM)?
**A.** 1.69 fold

**Q.** What about the “mRNA fold change by SDF-1” value ([1]; gene Fzd2 (Frizzled homolog 2), SDF-1 10 nM) of the same substance?
**A.** 1.43 fold

**Q.** What about the “mRNA fold change by SDF-1” value ([1]; gene Gsk3a (Glycogen synthase kinase 3 alpha), SDF-1 10 nM) of the same substance?
**A.** −1.67 fold

**Q.** And the “mRNA fold change by SDF-1” value ([1]; gene Gsk3b (Glycogen synthase kinase 3 beta), SDF-1 10 nM)?
**A.** −1.51 fold

**Q.** And the “mRNA fold change by SDF-1” value ([1]; gene Lrp5_predicted (Low density lipoprotein receptor-related protein 5), SDF-1 10 nM)?
**A.** 1.72 fold

**Q.** What about the “mRNA fold change by SDF-1” value ([1]; gene Myc, SDF-1 10 nM) of the same substance?
**A.** −2.55 fold

**Q.** What about the “mRNA fold change by SDF-1” value ([1]; gene Ppp2cb (Protein phosphatase 2, catalytic subunit, beta isoform), SDF-1 10 nM) of the same substance?
**A.** −2.12 fold

**Q.** And the “mRNA fold change by SDF-1” value ([1]; gene Ppp2r1b (Protein phosphatase 2, regulatory subunit A (PR 65), beta isoform), SDF-1 10 nM)?
**A.** −1.71 fold

**Q.** And the “mRNA fold change by SDF-1” value ([1]; gene Rhoa (Ras homolog gene family, member A), SDF-1 10 nM)?
**A.** −1.32 fold

**Q.** What about the “mRNA fold change by SDF-1” value ([1]; gene Slc9a3r1 (Solute carrier family 9, isoform 3 regulator 1), SDF-1 10 nM) of the same substance?
**A.** 1.43 fold

**Q.** What about the “mRNA fold change by SDF-1” value ([1]; gene Tcfe2a (Transcription factor E2a), SDF-1 10 nM) of the same substance?
**A.** 1.61 fold

**Q.** And the “mRNA fold change by SDF-1” value ([1]; gene Wif1 (Wnt inhibitory factor 1), SDF-1 10 nM)?
**A.** −1.92 fold

**Q.** And the “mRNA fold change by SDF-1” value ([1]; gene Wnt7b (Wingless-related MMTV integration site 7B), SDF-1 10 nM)?
**A.** 1.59 fold

**Q.** And the “proliferation of alpha cells (BrdU incorporation)” value [2]?
**A.** stimulates the proliferation

**Q.** And the PC1/3 expression [3]?
**A.** induces prohormone convertase PC1/3 expression

**Q.** And the “protection of cell viability against glucose toxicity” value [4]?
**A.** dose-dependently protects

**Q.** And the “protection of cell viability in serum deprivation” value [5]?
**A.** protects INS-1 cells from dying
